Measurements: patent US20200077648A1, “PHENOXYPHENYLAMIDINES AND THE USE THEREOF AS FUNGICIDES” (priority 2016, published 2020)

Experiments:
soy bean plants = assay: Plant compatibility test using soy bean plants; type: in vivo; conditions: soy bean young plants sprayed, rate of application of active compound 500 ppm, evaluated 6 days after application; 0% = no damages, 100% = plants totally damaged
Method: Plant Compatibility Test Using Soy Bean Plants
Solvent: 24.5 parts by weight of acetone • 24.5 parts by weight of dimethylacetamide Emulsifier: 1 part by weight of alkylaryl polyglycol ether
To produce a suitable preparation of active compound, 1 part by weight of active compound is mixed with the stated amounts of solvent and emulsifier, and the concentrate is diluted with water to the desired concentration. Young plants are sprayed with the preparation of active compound at the stated application rate. The plants are then placed in a greenhouse at approximately 21° C. and a relative atmospheric humidity of approximately 80%. The test is evaluated 6 days after application and comprises plant damages like leaf deformation, chlorosis, necrosis, shoot damage or stunting. 0% means no damages are observed, while 100% means that the plants are totally damaged.

[1] = Log P measurement by HPLC on reversed phase columns (EEC directive 79/831 Annex V.A8; methods [a], [b], [c]); type: physicochemical; conditions: method [a]: LC-UV, acidic range
Method: If more than one Log P value is available within the same method, all the values are given and separated by “+”. […] Lambda-max-values were determined using UV-spectra from 200 nm to 400 nm and the peak values of the chromatographic signals.

[2] = 0.1% formic acid in water and acetonitrile as eluent
[3] = 0.1% formic acid in water and acetonitrile as eluent (linear gradient 10% to 95% acetonitrile)

LogP [1, 3] | SMILES | Necrosis in % (soy bean plants) | LogP [1, 2]
1.27^[a] | CCN(C)C=Nc1cc(C)c(Oc2ccccc2C#N)cc1Br [Example 92] | – | –
1.84^[a] | CCN(C)C=Nc1cc(C)c(Oc2ccccc2C2CC2)cc1Br [Example 94] | – | –
1.59^[a] | CCc1cc(N=CN(C)CC)c(C)cc1Oc1ccccc1C#N [Example 108] | – | –
1.60^[a] | C=C(C)c1cc(N=CN(C)CC)c(C)cc1Oc1ccccc1C#N [Example 109] | – | –
1.83^[a] | CCN(C)C=Nc1cc(C)c(Oc2ccccc2F)cc1C1CC1 [Example 110] | – | –
1.44^[a] | C#Cc1cc(Oc2ccccc2F)c(C)cc1N=CN(C)CC [Example 112] | – | –
1.55^[a] | CCN(C)C=Nc1cc(C)c(Oc2ccccc2SC)cc1C [Example 115] | – | –
0.94^[a] | CCN(C)C=Nc1cc(C)c(Oc2ccccc2[S+](C)[O-])cc1C (centres unmarked) [Example 116] | – | –
1.38^[a] | CCN(C)C=Nc1cc(C2CC2)c(Oc2ccccc2C#N)cc1C [Example 119] | – | –
1.75^[a] | CCN(C)C=Nc1cc(C(C)C)c(Oc2ccccc2F)cc1C [Example 121] | – | –
0.91^[a] | CCN(C)C=Nc1cc(C)c(Oc2ccccc2S(C)(=O)=O)cc1C [Example 122] | – | –
1.41^[a] | Cc1cc(Oc2ccccc2C#N)c(I)cc1N=CN(C)C(C)C [Example 426] | – | –

Further lines, the compound ahead of its results:

SMILES | LogP [1, 3] | Necrosis in % (soy bean plants) | LogP [1, 2]
CCN(C)C=Nc1cc(C)c(Oc2cccc(F)c2)cc1C [Example 2] | – | 80% | 1.50^[a]
CCN(C)C=Nc1cc(C)c(Oc2cccc(F)c2)cc1Cl [Example 5] | – | 10% | 1.58^[a]
Cc1cc(N=CN(C)C(C)C)c(Cl)cc1Oc1ccccc1F [Example 7] | – | 10% | 1.80^[a]
CCN(C)C=Nc1cc(Cl)c(Oc2ccc(F)cc2)cc1C [Example 8] | – | 0% | 1.55^[a]
CCN(C)C=Nc1cc(C)c(Oc2ccc(F)cc2)cc1Cl [Example 9] | – | 5% | 1.47^[a]
CCN(C)C=Nc1cc(Cl)c(Oc2cccc(F)c2)cc1C [Example 12] | – | 5% | 1.75^[a]
CCN(C)C=Nc1cc(C)c(Oc2ccccc2Cl)cc1C [Example 16] | – | 30% | 1.86^[a]
CCN(C)C=Nc1cc(C)c(Oc2cccc(F)c2F)cc1C [Example 19] | – | 60% | 1.49^[a]
CCN(C)C=Nc1cc(C)c(Oc2cccc(C)c2F)cc1C [Example 20] | – | 80% | 1.69^[a]
CCN(C)C=Nc1cc(C)c(Oc2ccccc2C(=O)N(C)C)cc1Cl [Example 91] | 0.97^[a] | – | –
CCN(C)C=Nc1cc(C)c(Oc2cccc(F)c2C)cc1Br [Example 95] | 1.75^[a] | – | –
C=C(C)c1cc(Oc2ccccc2)c(C)cc1N=CN(C)CC [Example 96] | 1.63^[a] | – | –
C=C(C)c1cc(Oc2ccccc2F)c(C)cc1N=CN(C)CC [Example 97] | 1.66^[a] | – | –
CCN(C)C=Nc1cc(C)c(Oc2ccccc2C(C)C)cc1Br [Example 98] | 2.26^[a] | – | –
CCN(C)C=Nc1cc(C)c(Oc2ccccc2I)cc1Br [Example 99] | 2.03^[a] | – | –
CCN(C)C=Nc1cc(C)c(Oc2ccccc2N(C)C)cc1Br [Example 100] | 1.07^[a] | – | –
CCN(C)C=Nc1cc(C)c(Oc2ccccc2[S+](C)[O-])cc1Br (centres unmarked) [Example 101] | 1.02^[a] | – | –
CCN(C)C=Nc1cc(C)c(Oc2ccccc2SC)cc1Br [Example 103] | 1.82^[a] | – | –
CCN(C)C=Nc1cc(C)c(Oc2cccc(F)c2C#N)cc1Br [Example 104] | 1.58^[a] | – | –
C#Cc1cc(Oc2ccccc2)c(C)cc1N=CN(C)CC [Example 111] | 1.44^[a] | – | –
CCN(C)C=Nc1cc(C)c(Oc2ccccc2)cc1C1CC1 [Example 113] | 1.58^[a] | – | –
CCN(C)C=Nc1cc(C)c(Oc2ccccc2F)cc1C(=O)N(C)C [Example 117] | 1.24^[a] | – | –
CCN(C)C=Nc1cc(C)c(Oc2ccccc2S(C)(=O)=O)cc1Br [Example 123] | 0.94^[a] | – | –
